Results from article PMC12973313 (Chemical Science, 2026).
≈ marks a conversion by molar mass, not a printed value. Where “and” joins values, the source holds several entries; their conditions need not be identical. Equal entries are not always repeated. Where two headings read alike, the source gives them in different places.

Legend:
[1] = Bi-directional permeability in Caco-2 cell line; type: in vitro ADME; settings: human; for recovery at 2 h, 5 µM: Caco-2, pH 7.4, after 2 hours
Description: Next, to gauge the suitability of SSAs for oral dosing, 9 was subjected to a Caco-2 permeability assay which is used to both predict human intestinal permeability and investigate drug efflux, predicting in vivo compound absorption. This assay allows assessment of a compound's ability to undergo transport from the apical to the basolateral (A–B) compartments of the cell monolayer and vice versa (B–A). […] This is likely to result in poor absorption when dosed orally and therefore further development would be necessary for these agents to become suitable for oral administration. […]
The ionspray voltage was 5500V.
Bi-directional Permeability in Caco-2 Cell Line:
The bi-directional permeability in Caco-2 cell lines was determined by seeding cells onto an HTS Transwell plate. Cells were cultivated for 14-18 days in a cell culture incubator at 37°C, 5% CO2, 95% relative humidity. Cell culture medium was replaced every other day. To assess monolayer integrity the transepithelial electrical resistance (TEER) across the monolayer was measured using Millicell Epithelial volt-ohm meter prior to assay and Lucifer yellow (LY) fluorescence measurement post-assay.
Test compound was prepared in DMSO and diluted in Hank’s Balanced Saline Solution (HBSS, pH 7.4) to a final concentration of 5 µM. Compound was added to the donor compartment of the transwell plate for both apical to basolateral (A>B) and basolateral to apical (B>A) measurements, with blank HBSS being added to the receiver compartment. The transwell plate was then incubated at 37°C, 5% CO2 for 2 hours.
Samples were taken at T=0 and T=2 hours determine the concentration of initial donor sample, and the concentration of receiver and donor wells post-incubation, respectively.
The samples were quenched with solvent containing internal standard (IS). The supernatant was mixed with an appropriate volume of ultra-pure water before LC-MS/MS analysis.
Samples were analysed using a Shimadzu Nexera LC Binary Gradient LC-30AD (Shimadzu Inc, Kyoto), coupled to a Sciex 6500+ (AB Inc., Illinois). Separation of compounds was achieved using a HALO 90Å biphenyl (2.7µm,2.1x50mm) (Advanced Materials Technology, Wilmington) column at a temperature of 40°C. A binary mobile phase gradient at a flow rate of 0.7 mL/min was used. Initial LC conditions comprised of 95% solvent A (0.1% formic acid in water) and 5% solvent B (0.1% formic acid in acetonitrile). This was ramped to 95% solvent B at 0.7 minutes, held for 0.5 minutes and then immediately returned to initial conditions. Sample analysis was by electrospray ionisation combined with multiple reaction monitoring in positive ion mode. The ion spray voltage was 5500V.
In vitro Absorption, Distribution and Metabolism results
Table S1 – Result from solubility assays performed in PBS pH 7.4 for SSA 9.
Table S2 – Summary of results from Caco-2 permeability assays for SSA 9. Papp is given as […]
cm/s. A = apical; B = basolateral. Recovery = % SSA recovered from the assay after 2 hours.
ID Papp (A-B) % Recovery Papp (B-A) % Recovery Efflux Ratio
Table S3 – Summary of results from human plasma protein binding assays for SSA 9. % Bound = % of SSA bound to the plasma proteins after 6 hours incubation at 37 °C. Low % […]
= > 99 %. % Recovery = % SSA recovered from the assay after 6 hours.
ID % Bound % Recovery % Stability
Table S4 – Summary of results from mouse, rat and human microsomal stability assays for SSA 9. The in vitro half-life (t1/2) and microsomal intrinsic clearance (CLint) were calculated from the elimination rate (k, the slope of the natural log of concentration verses time curve), assuming first order kinetics, using the formulae t1/2 = 0.693/-k and CLint = 0.693/t1/2 […]. This compound would be classed as a low clearance compound in all three species. […]

[2] = Metabolic stability in liver microsomes; type: in vitro ADME, human
Protocol: Following this, the metabolic stability of 9 was determined against mouse, rat, and human liver microsomes. […] Within this assay the stability of the intact parent compound is monitored with respect to time, during incubation at 37 °C in the presence and absence of the co-factor NADPH – required for cytochrome p450 activity.
Metabolic Stability in Rat, Mouse and Human Liver Microsomes:
The metabolic stability of compounds at a concentration of 1 µM, in rat, mouse and human liver microsomes (BD Gentest, Franklin Lakes NJ) was measured following incubation with hepatic microsomes (0.5 mg of protein / mL) in the presence and absence of cofactor (NADPH) at 37 °C. Aliquots of each incubation were removed at 0.5, 5, 15, 30 and 60 minutes. […]
Samples were analysed using a Shimadzu Shimadzu Nexera LC Binary Gradient LC-30AD (Shimadzu Inc, Kyoto), coupled to a Sciex 5500 mass spectrometer (AB Inc., Illinois) for rat and mouse microsomes and a Sciex 6500+ for human microsomes. […]
The bi-directional permeability in Caco-2 cell lines was determined by seeding cells onto an HTS Transwell plate. […] To assess monolayer integrity the transepithelial electrical resistance (TEER) across the monolayer was measured using Millicell Epithelial volt-ohm meter prior to assay and Lucifer yellow (LY) fluorescence measurement post-assay. […]

[3] = Kinetic solubility in PBS pH 7.4; type: physicochemical; settings: upper limit 300 µM
[4] = set-up: method as in PMID 29633393; settings: D2O 5% EtOH, 5.56 mM, 298 K; cited from earlier work
[5] = set-up: method as in PMID 29633393; settings: DMSO-d6 1% DCM, 112 mM, 298 K; proportion NMR silent; cited from earlier work
[6] = H2O 5% EtOH, 5.56 mM; cited from earlier work
[7] = set-up: method as in PMID 29633393; settings: H2O 5% EtOH, cited from earlier work

## O=C(Nc1ccc(C(F)(F)F)cc1)N[C@H](Cc1ccccc1)C(=O)O [SSA 9]
[1]; Caco-2, pH 7.4, 5 µM, 2 hours, basolateral to apical
  Papp B→A at 2 h, 5 µM: 16.8 ×10⁻⁶ cm/s
[1]; Caco-2, pH 7.4, Caco-2
  efflux ratio at 2 h, 5 µM: 96.9
[1]; read-out: Recovery (%) AP-BL
  recovery at 2 h, 5 µM: 111%
[1]; read-out: Recovery (%) BL-AP
  recovery at 2 h, 5 µM: 97.7%
[1]; Caco-2, pH 7.4, 5 µM, 2 hours, apical to basolateral
  Papp A→B at 2 h, 5 µM: 0.17 ×10⁻⁶ cm/s
[2]; human microsomes
  microsomal CLint at 1 µM: < 7.5 µL/min/mg
[2]; human, 1 µM, 0.5 mg protein/mL, read-out: In vitro t1/2
  half-life at 1 µM: > 3.08 h
[3]; phosphate buffered saline, 25 °C, pH 7.4, aqueous buffer, kinetic from dmso stock
  solubility at 2 h: 271 µM (≈ 95.5 µg/mL)
[3]; 25°C, 2 hours
  Solubility in PBS pH 7.4 (μM): 271 μM

## O=C(O)CNC(=O)Nc1ccc(C(F)(F)F)cc1 [SSA 1]
[4]
  Q NMR (%) SSA anion: 68 (ref. [30]) %
[5]
  Q NMR (%) SSA anion: 0 (ref. [30]) %
  Q NMR (%) SSA cation: 0 (ref. [30]) %
[6]
  Zeta potential (mV): -37 mV and −37 (ref. [30]) mV
[7]; approx. 291 K
  CAC (mM): 11.2 (ref. [30]) mM
[7]
  Surface tension (mN m^-1): 39.33 (ref. [30]) mN m^−1
